Measured values published in patent US20100056596A1, “RESISTANCE-REPELLENT RETROVIRAL PROTEASE INHIBITORS” (Sequoia Pharmaceuticals, priority 2004, published 2010).

Experiments:
[1] = molecular target: T1, wild type HIV-1 protease (Human immunodeficiency virus type 1 group M subtype B, UniProt P04585); assay: Ki against wild type (WT) HIV-1 protease; type: biochemical; conditions: wild type HIV-1 protease
T1 construct: over 45 of the 99 amino acids of the HIV protease monomer

[2] = molecular target: HIV-1 protease Mutant 8 (Human immunodeficiency virus type 1, UniProt P04585); assay: Ki against HIV-1 protease Mutant 8; type: biochemical; conditions: HIV-1 protease Mutant 8
[3] = molecular target: HIV-1 protease Mutant 9 (Human immunodeficiency virus type 1, UniProt P04585); assay: Ki against HIV-1 protease Mutant 9; type: biochemical; conditions: HIV-1 protease Mutant 9
[4] = test system: HIV-1 isolates, WT; assay: In vitro drug sensitivity of HIV-1 laboratory isolates, WT; type: cell-based; conditions: Human immunodeficiency virus 1; HIV-1 isolate WT
Procedure: (§1) In Vitro Drug Sensitivity of HIV-1 Laboratory Isolates to PIs
(§2) The sensitivities of HIV-1 isolates against compounds of the invention were determined as previously described with minor modifications (Shiraska et al., Proc. Natl. Acad. Sci. USA, 92, 2398-2402 (1995)).

[5] = test system: HIV-1 isolates, Mutant 8; assay: In vitro drug sensitivity of HIV-1 laboratory isolates, Mutant 8; type: cell-based; conditions: Human immunodeficiency virus 1, read-out: IC50 Mutant 8
Procedure: as §1, §2

[6] = test system: HIV-1 isolates, Mutant 9; assay: In vitro drug sensitivity of HIV-1 laboratory isolates, Mutant 9; type: cell-based; conditions: Human immunodeficiency virus 1, read-out: IC50 Mutant 9
Procedure: as §1, §2

SMILES	Ki [1] [nM]	Ki [2] [nM]	Ki [3] [nM]	IC50 [4] [nM]	IC50 [5] [nM]	IC50 [6] [nM]
CCS(=O)(=O)NCc1noc2ccc(S(=O)(=O)N(CC(C)C)CC(O)C(Cc3ccccc3)NC(=O)OC3COC4OCCC34)cc12 (stereo not drawn) [Compound 223]	< 0.1	< 0.3	0.26	9	11	60
CC(C)CN(CC(O)C(Cc1ccccc1)NC(=O)OC1COC2OCCC12)S(=O)(=O)c1ccc2onc(CNCCc3ccccn3)c2c1 (stereo not drawn) [Compound 224]	< 0.1	< 0.3	0.22	15	30	100
CCOC(=O)N(CCOC)Cc1noc2ccc(S(=O)(=O)N(CC(C)C)CC(O)C(Cc3ccccc3)NC(=O)OC3COC4OCCC34)cc12 (stereo not drawn) [Compound 225]	< 0.1	< 0.3	0.44	3.6	27	80
CCSCCNCc1noc2ccc(S(=O)(=O)N(CC(C)C)CC(O)C(Cc3ccccc3)NC(=O)OC3COC4OCCC34)cc12 (stereo not drawn) [Compound 226]	< 0.1	< 0.3	< 0.1	5.5	16	38
CCS(=O)(=O)N(CCOC)Cc1noc2ccc(S(=O)(=O)N(CC(C)C)CC(O)C(Cc3ccccc3)NC(=O)OC3COC4OCCC34)cc12 (stereo not drawn) [Compound 227]	< 0.1	0.41	2.6	3.6	27	80
CC(C)CN(CC(O)C(Cc1ccccc1)NC(=O)OC1COC2OCCC12)S(=O)(=O)c1ccc2onc(CNCC(F)(F)C(F)(F)F)c2c1 (stereo not drawn) [Compound 228]	0.12	< 0.3	0.2	4.5	9.5	26
CC(C)CN(CC(O)C(Cc1ccccc1)NC(=O)OC1COC2OCCC12)S(=O)(=O)c1ccc2onc(CNCC(F)(F)F)c2c1 (stereo not drawn) [Compound 229]	< 0.1	< 0.3	0.46	2.2	3.1	21
CC(C)CN(CC(O)C(Cc1ccccc1)NC(=O)OC1COC2OCCC12)S(=O)(=O)c1ccc2onc(CNCCOc3ccccc3)c2c1 (stereo not drawn) [Compound 230]	< 0.1	< 0.3	0.14	4.8	20	57
CCCCNCc1noc2ccc(S(=O)(=O)N(CC(C)C)CC(O)C(Cc3ccccc3)NC(=O)OC3COC4OCCC34)cc12 (stereo not drawn) [Compound 231]	< 0.1	< 0.3	0.29	4.3	23	60
CC(C)CN(CC(O)C(Cc1ccccc1)NC(=O)OC1COC2OCCC12)S(=O)(=O)c1ccc2onc(CNCc3ccccc3)c2c1 (stereo not drawn) [Compound 232]	< 0.1	< 0.3	0.11	7	55	80
CC(C)CN(CC(O)C(Cc1ccccc1)NC(=O)OC1COC2OCCC12)S(=O)(=O)c1ccc2onc(CSCC(F)(F)F)c2c1 (stereo not drawn) [Compound 233]	< 0.1	< 0.3	3.4	4	36	> 400
CC(C)CN(CC(O)C(Cc1ccccc1)NC(=O)OC1COC2OCCC12)S(=O)(=O)c1ccc2onc(CNC(=O)C(F)(F)F)c2c1 (stereo not drawn) [Compound 234]	< 0.1	< 0.3	0.36	16	23	85
CC(C)CN(CC(O)C(Cc1ccccc1)NC(=O)OC1COC2OCCC12)S(=O)(=O)c1ccc2onc(CNC3CCCC3)c2c1 (stereo not drawn) [Compound 235]	< 0.1	< 0.3	0.43	4.2	15	120
CC(C)CN(CC(O)C(Cc1ccccc1)NC(=O)OC1COC2OCCC12)S(=O)(=O)c1ccc2onc(CNCCNC(=O)OC(C)(C)C)c2c1 (stereo not drawn) [Compound 236]	< 0.1	< 0.3	0.34	6	18	160
CC(C)CN(CC(O)C(Cc1ccccc1)NC(=O)OC1COC2OCCC12)S(=O)(=O)c1ccc2onc(CNCCCN3CCCC3=O)c2c1 (stereo not drawn) [Compound 237]	< 0.1	< 0.3	0.27	31	41	85
CC(C)CN(CC(O)C(Cc1ccccc1)NC(=O)OC1COC2OCCC12)S(=O)(=O)c1ccc2onc(CNCC3CCCCC3)c2c1 (stereo not drawn) [Compound 238]	< 0.1	< 0.3	< 0.1	7.5	35	55
CC(C)CN(CC(O)C(Cc1ccccc1)NC(=O)OC1COC2OCCC12)S(=O)(=O)c1ccc2onc(CN3CCOCC3)c2c1 (stereo not drawn) [Compound 239]	< 0.1	< 0.3	3.7	3	25	> 400
CC(C)CN(CC(O)C(Cc1ccccc1)NC(=O)OC1COC2OCCC12)S(=O)(=O)c1ccc2onc(CNC(=O)c3ccco3)c2c1 (stereo not drawn) [Compound 240]	< 0.1	< 0.3	0.26	6.5	11	20
CC(C)CN(CC(O)C(Cc1ccccc1)NC(=O)OC1COC2OCCC12)S(=O)(=O)c1ccc2onc(CNCc3ccccn3)c2c1 (stereo not drawn) [Compound 241]	0.1	< 0.3	0.16	8	17	27
Cc1nc(CNCc2noc3ccc(S(=O)(=O)N(CC(C)C)CC(O)C(Cc4ccccc4)NC(=O)OC4COC5OCCC45)cc23)cs1 (stereo not drawn) [Compound 242]	< 0.1	< 0.3	0.22	7	15	27
CC(C)CN(CC(O)C(Cc1ccccc1)NC(=O)OC1COC2OCCC12)S(=O)(=O)c1ccc2onc(CS(C)(=O)=O)c2c1 (stereo not drawn) [Compound 243]	< 0.1	< 0.3	0.96	8.2	24	120
COCc1noc2ccc(S(=O)(=O)N(CC(C)C)CC(O)C(Cc3ccccc3)NC(=O)OC3COC4OCCC34)cc12 (stereo not drawn) [Compound 244]	< 0.1	< 0.3	0.49	4.1	40	305
CC(C)CN(CC(O)C(Cc1ccccc1)NC(=O)OC1COC2OCCC12)S(=O)(=O)c1ccc2onc(CNC(=O)C(F)(F)C(F)(F)F)c2c1 (stereo not drawn) [Compound 245]	< 0.1	< 0.3	0.63	8.4	30	190
CC(C)CN(CC(O)C(Cc1ccccc1)NC(=O)OC1COC2OCCC12)S(=O)(=O)c1ccc2onc(COCC(F)(F)F)c2c1 (stereo not drawn) [Compound 246]	< 0.1	< 0.3	1.1	2.7	6.8	105
CC(=O)N(Cc1noc2ccc(S(=O)(=O)N(CC(C)C)CC(O)C(Cc3ccccc3)NC(=O)OC3COC4OCCC34)cc12)CC(F)(F)F (stereo not drawn) [Compound 247]	< 0.1	< 0.3	1.1	5.4	29	> 400
